Reference: patent US11056705B2, “Organic anolyte materials for flow batteries” (THE REGENTS OF THE UNIVERSITY OF MICHIGAN, priority 2015, dated 2021)
Marks after values point to notes of the source that are not given here.

Key:
[1] = Cyclic voltammetry (CV) of anolyte candidates in a three-electrode cell; type: physicochemical; settings: for reduction within the electrochemical window of MeCN: MeCN with NBu4BF4; for reduction potential: MeCN with NBu4BF4 (TBABF4) supporting electrolyte, versus Ag/Ag+; for reversibility of reduction: scan rate not specified; for ipc1/ipa1 (10 mV/s) / ipc1/ipa1 (100 mV/s) / E1^0: 0.01M substrate, 0.10M support; for ipc1/ipa1 (10 mV/s) / ipc1/ipa1 (100 mV/s): 2nd cycle; for E1^0: Ag/Ag+ reference, (E1c+E1a)/2, — = no anodic current observed; for reversibility of redox couple: 10 mV/s (slower scan rates); for current peak-height ratios: low potential couples in TBABF4 supports
Protocol: The electrochemistry of a series of heteroarenes was evaluated by cyclic voltammetry (CV). Electrochemical analysis was performed in the absence of oxygen and moisture. The experiments were conducted in a three-electrode cell comprised of a glassy carbon working electrode, a platinum counter electrode, and a Ag/Ag^+ reference electrode. The CV of each anolyte candidate was initially conducted in acetonitrile (MeCN) with tetrabutylammonium tetrafluoroborate (TBABF4) as the supporting electrolyte.
The reversibility of each redox couple in the CV was estimated by calculating the ratio of the diffusion-limited peak-heights of the cathodic (ipc) and anodic (ipa) currents (FIG. 2). The current peak heights were determined from the second CV cycle, and are all reported following deconvolution of the current-potential plot. […] In addition, […] conducted at slow scan rates allows for an extended lifetime of the reduced species (FIG. 2, 10 mV/s scan). With longer lifetimes, the concentration of charged anolytes that are susceptible to irreversible chemical or electrochemical reactions will decrease, and lower current responses upon re-oxidation will be observed. As a result, redox couples measured at slow scan rates generally occur with current peak-height ratios that deviate from unity to a greater extent than couples measured at faster scan rates. Thus, these techniques provide a method to rapidly assess and compare a range of anolyte materials.

[2] = as above; type: physicochemical; settings: for reversibility of redox couple: MeCN/TBABF4; for ipc1/ipa1 (10 mV/s) / ipc1/ipa1 (100 mV/s) / ipc2/ipa2 (10 mV/s): 2nd cycle; for ipc2/ipa2 (10 mV/s): second couple
[3] = MeCN/LiBF4, 0.01M substrate, 0.10M support
[4] = PC/LiBF4, 0.01M substrate, 0.10M support
[5] = PC/TBABF4, 0.01M substrate, 0.10M support
[6] = MeCN/LiBF4, 0.01M substrate, 0.10M support, (E1c+E1a)/2, — = no anodic current observed
[7] = MeCN/LiBF4, 0.01M substrate, 0.10M support, (E2c+E2a)/2
[8] = MeCN/LiBF4, CV measured at 200 mV/s scan rate

| ipc1/ipa1 (10 mV/s) ([1]; MeCN/TBABF4) | ipc1/ipa1 (100 mV/s) ([1]; MeCN/TBABF4) | E1^0 ([1]; MeCN/TBABF4) [V] | ipc1/ipa1 (100 mV/s) ([1]; MeCN/LiBF4) | ipc1/ipa1 (10 mV/s) [2, 3] | E1^0 [2, 6] [V] | SMILES | other results |
| --- | --- | --- | --- | --- | --- | --- | --- |
|  |  |  |  |  |  | COc1ccccn1 [2-methoxypyridine, reference compound] | reduction within the electrochemical window of MeCN [1]: no reduction was observed |
|  |  |  |  |  |  | Cc1ccccn1 [2-methylpyridine, reference compound] | reduction within the electrochemical window of MeCN [1]: no reduction was observed |
|  |  |  |  |  |  | COc1ccnc(-c2cc(OC)ccn2)c1 [4,4′-methoxy bipyridine, reference compound] | reduction potential [1]: −2.6 V; reversibility of reduction ([1]; MeCN/TBABF4): reversibly |
|  |  |  |  |  |  | COc1ccncc1 [4-methoxypyridine, reference compound] | reduction within the electrochemical window of MeCN [1]: no reduction was observed |
|  |  |  |  |  |  | Cc1ccncc1 [4-methylpyridine, reference compound] | reduction within the electrochemical window of MeCN [1]: no reduction was observed |
| >5 | 1.83 | −2.36 |  |  |  | COC(=O)c1ccccn1 [Compound 1a, Methyl picolinate] | reversibility of redox couple ([1]; MeCN/TBABF4): completely irreversible; reversibility of redox couple ([2]; 100 mV/s): quasi-reversible |
| 1.67 | 1.15 | −2.16 | >5 | >5 |  | COC(=O)c1ccncc1 [Compound 3a, methyl isonicotinate] | reversibility of redox couple ([1]; MeCN/TBABF4): reversible; ipc1/ipa1 (10 mV/s) [2, 4]: >5; ipc1/ipa1 (100 mV/s) [2, 4]: >5; E1^0 [2, 5]: −2.62 V; ipc1/ipa1 (10 mV/s) [2, 5]: 2.02; ipc1/ipa1 (100 mV/s) [2, 5]: 1.35 |
| 1.28 | 1.03 | −2.20 |  |  |  | CCOC(=O)c1ccncc1 [Compound 3b] |  |
| 1.10 | 1.02 | −2.20 |  |  |  | CC(C)OC(=O)c1ccncc1 [Compound 3c] |  |
| 1.09 | 1.01 | −2.24 |  |  |  | CC(C)(C)OC(=O)c1ccncc1 [Compound 3d] | reversible reduction processes ([2]; LiBF4 support, scan rates between 10 and 500 mV/s, acetonitrile or propylene carbonate): No reversible reduction processes were observed |
| >5 | 1.18 | −2.52 |  |  |  | CN(C)C(=O)c1ccncc1 [Compound 3e] | reversibility of redox couple ([1]; MeCN/TBABF4): irreversible; reversibility of redox couple ([2]; 100 mV/s): quasi-reversible |
| >5 | >5 |  |  |  |  | N#CCOC(=O)c1ccncc1 [Compound 3f] | reduction potential [1]: approximately −2.0 V; reversibility of reduction ([1]; MeCN/TBABF4): highly irreversible |
| >5 | 1.91 | −2.03 |  |  |  | O=C(OCC(F)(F)F)c1ccncc1 [Compound 3g] | reduction potential [1]: approximately −2.0 V; reversibility of reduction ([1]; MeCN/TBABF4): highly irreversible |
| >5 | >5 |  |  |  |  | O=C(OC(C(F)(F)F)C(F)(F)F)c1ccncc1 [Compound 3h] | reduction potential [1]: approximately −2.0 V; reversibility of reduction ([1]; MeCN/TBABF4): highly irreversible |
| 1.41 | 1.05 | −1.96 | >5 | >5 |  | COC(=O)c1cc[n+]([O-])cc1 [Compound 4a] |  |
|  |  |  | >5 | >5 |  | CCOC(=O)c1cc[n+]([O-])cc1 [Compound 4b] |  |
|  |  |  | >5 | >5 |  | CC(C)OC(=O)c1cc[n+]([O-])cc1 [Compound 4c] |  |
| 1.17 | 1.00 | −2.01 | >5 | >5 |  | CC(C)(C)OC(=O)c1cc[n+]([O-])cc1 [Compound 4d] |  |
| 1.10 | 1.03 | −1.42 | 1.02 | 1.06 | −1.83 | COC(=O)c1cc[n+]([B-](F)(F)F)cc1 [Compound 5a] | current peak-height ratios [1]: approaching unity |
|  |  |  | 1.06 | 1.08 | −1.80 | CCOC(=O)c1cc[n+]([B-](F)(F)F)cc1 [Compound 5b] |  |
|  |  |  | 1.06 | 1.09 | −1.80 | CC(C)OC(=O)c1cc[n+]([B-](F)(F)F)cc1 [Compound 5c] |  |
| 1.05 | 1.03 | −1.45 | 1.06 | 1.11 | −1.84 | CC(C)(C)OC(=O)c1cc[n+]([B-](F)(F)F)cc1 [Compound 5d] | current peak-height ratios [1]: approaching unity; re-oxidation after the second reduction ([2]; LiBF4 supporting electrolyte, 100 mV/s, scanned to more negative potentials): Minimal re-oxidation |
|  |  |  |  | 0.99 | −1.11 | CC[n+]1ccc(C(=O)OC)cc1.[I-] [Compound 6a] | ipc2/ipa2 (10 mV/s) [2, 3]: 0.95; E2^0 [2, 7]: −1.85 V |
|  |  |  |  | 0.98 | −1.10 | CCOC(=O)c1cc[n+](CC)cc1.[I-] [Compound 6b] | ipc2/ipa2 (10 mV/s) [2, 3]: 0.94; E2^0 [2, 7]: −1.86 V |
|  |  |  |  | 0.98 | −1.11 | CC[n+]1ccc(C(=O)OC)cc1 [Compound 7a] | high potential peak ([1]; MeCN, TBABF4 as the electrolyte): no high potential peak is observed; anodic peak with no corresponding cathodic current ([2]; MeCN, 0.1 M LiBF4, 200 mV/s, +1 V to −2.5 V): +0.4 V; ipc2/ipa2 (10 mV/s) [2, 3]: 0.96; E2^0 [2, 7]: −1.88 V; E1^0 [2, 8]: −1.12 V; ipc1/ipa1 [2, 8]: 1.02^f; ipc2/ipa2 [2, 8]: 1.08^f; current peaks at positive potentials ([2]; MeCN/LiBF4, lower scanning limit −1.4 V or −0.5 V): no current peaks were observed; high potential peak ([2]; MeCN, LiTFSI as the support): only a small high potential peak |
|  |  |  |  | 0.99 | −1.11 | CCOC(=O)c1cc[n+](CC)cc1 [Compound 7b] | ipc2/ipa2 (10 mV/s) [2, 3]: 0.96; E2^0 [2, 7]: −1.90 V |
|  |  |  |  | 0.97 | −1.13 | CC[n+]1ccc(C(=O)OC(C)C)cc1 [Compound 7c] | ipc2/ipa2 (10 mV/s) [2, 3]: 0.95; E2^0 [2, 7]: −1.89 V |
|  |  |  |  | 0.99 | −1.15 | CC[n+]1ccc(C(=O)OC(C)(C)C)cc1 [Compound 7d] | ipc2/ipa2 (10 mV/s) [2, 3]: 0.93; E2^0 [2, 7]: −1.93 V; E1^0 [2, 8]: −1.14 V; E2^0 [2, 8]: −1.92 V; ipc1/ipa1 [2, 8]: 1.09^f; ipc2/ipa2 [2, 8]: 1.38^f |
|  |  |  |  | 0.98 | −1.11 | CC[n+]1ccc(C(=O)OC)cc1 [Compound 8a] | ipc2/ipa2 (10 mV/s) [2, 3]: 0.95; E2^0 [2, 7]: −1.89 V |

| SMILES | ipc1/ipa1 (10 mV/s) ([1]; MeCN/TBABF4) | ipc1/ipa1 (100 mV/s) ([1]; MeCN/TBABF4) | E1^0 ([1]; MeCN/TBABF4) [V] | ipc1/ipa1 (100 mV/s) ([1]; MeCN/LiBF4) | ipc1/ipa1 (10 mV/s) [2, 3] | E1^0 [2, 6] [V] | other results |
| --- | --- | --- | --- | --- | --- | --- | --- |
| COC(=O)c1cccnc1 [Compound 2a, methyl nicotinate] | >5 | >5 |  |  |  |  | reversibility of reduction ([1]; MeCN/TBABF4): No re-oxidation current was observed |
